Assay results taken from publication PMC8079033, “Design, synthesis, anticancer evaluation, and molecular modelling studies of novel tolmetin derivatives as potential VEGFR-2 inhibitors and apoptosis inducers” (Journal of Enzyme Inhibition and Medicinal Chemistry, 2021).

Tests used:
[1] = test system: leukaemia HL-60 (TB) cell line; test: MTT cytotoxicity assay; format: cell-based; details: Homo sapiens, mean ± SD of three experiments
renal (UO-31) cell line = test: MTT cytotoxicity assay; format: cell-based; details: Homo sapiens, mean ± SD of three experiments
colon (HCT-15) cell line = test: MTT cytotoxicity assay; format: cell-based; details: Homo sapiens, mean ± SD of three experiments
HT29 = test: NCI 60-cell line one-dose antiproliferative screen (SRB); format: cell-based; details: Homo sapiens, HT-29, read-out: growth inhibition % (GI%)
Procedure, shortened: (§1)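 One concentration (10 µM) is tested over a 48 h incubation. Growth is measured by protein staining with sulforhodamine B and is normalised to both the no-compound control and the cell number at compound addition.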

T-47D = test: as above; format: cell-based; details: Homo sapiens, T47D, read-out: growth inhibition % (GI%)
Procedure, shortened: as §1

OVCAR-3 = test: as above; format: cell-based; details: Homo sapiens, read-out: growth inhibition % (GI%)
Procedure, shortened: as §1

UACC-257 = test: as above; format: cell-based; details: Homo sapiens, read-out: growth inhibition % (GI%)
Procedure, shortened: as §1

UACC-62 = test: as above; format: cell-based; details: Homo sapiens, read-out: growth inhibition % (GI%)
Procedure, shortened: as §1

RPMI-8226 = test: as above; format: cell-based; details: Homo sapiens, read-out: growth inhibition % (GI%)
Procedure, shortened: as §1

TK-10 = test: as above; format: cell-based; details: Homo sapiens, read-out: growth inhibition % (GI%)
Procedure, shortened: as §1

SK-OV-3 = test: as above; format: cell-based; details: Homo sapiens, read-out: growth inhibition % (GI%)
Procedure, shortened: as §1

HCT-15 = test: as above; format: cell-based; details: Homo sapiens, read-out: growth inhibition % (GI%)
Procedure, shortened: as §1

Colo 205 = test: as above; format: cell-based; details: Homo sapiens, read-out: growth inhibition % (GI%)
Procedure, shortened: as §1

SR = test: as above; format: cell-based; details: Homo sapiens, read-out: growth inhibition % (GI%)
Procedure, shortened: as §1

KM12 = test: as above; format: cell-based; details: Homo sapiens, read-out: growth inhibition % (GI%)
Procedure, shortened: as §1

SK-MEL-2 = test: as above; format: cell-based; details: Homo sapiens, read-out: growth inhibition % (GI%)
Procedure, shortened: as §1

HCC-2998 = test: as above; format: cell-based; details: Homo sapiens, read-out: growth inhibition % (GI%)
Procedure, shortened: as §1

HL-60 (TB) = test: as above; format: cell-based; details: Homo sapiens, read-out: growth inhibition % (GI%)
Procedure, shortened: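 Sulforhodamine B assay, 515 nm: percent growth relative to untreated control and time-zero cell number after a 48 h incubation with 10 µM compound at 37 °C, reported as GI%.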

SF-268 = test: as above; format: cell-based; details: Homo sapiens, read-out: growth inhibition % (GI%)
Procedure, shortened: as §1

DU-145 = test: as above; format: cell-based; details: Homo sapiens, read-out: growth inhibition % (GI%)
Procedure, shortened: as §1

SK-MEL-28 = test: as above; format: cell-based; details: Homo sapiens, read-out: growth inhibition % (GI%)
Procedure, shortened: as §1

MOLT-4 = test: as above; format: cell-based; details: Homo sapiens, read-out: growth inhibition % (GI%)
Procedure, shortened: as §1

HS 578 T = test: as above; format: cell-based; details: Homo sapiens, read-out: growth inhibition % (GI%)
Procedure, shortened: as §1

IGROV1 = test: as above; format: cell-based; details: Homo sapiens, IGROV-1, read-out: growth inhibition % (GI%)
Procedure, shortened: as §1

LOX IMVI = test: as above; format: cell-based; details: Homo sapiens, read-out: growth inhibition % (GI%)
Procedure, shortened: as §1

BT-5 = test: as above; format: cell-based; details: Homo sapiens, read-out: growth inhibition % (GI%)
Procedure, shortened: as §1

MALME-3M = test: as above; format: cell-based; details: Homo sapiens, read-out: growth inhibition % (GI%)
Procedure, shortened: as §1

CCRF-CEM = test: as above; format: cell-based; details: Homo sapiens, read-out: growth inhibition % (GI%)
Procedure, shortened: as §1

MDA-MB-231/ATCC = test: as above; format: cell-based; details: Homo sapiens, read-out: growth inhibition % (GI%)
Procedure, shortened: as §1

[2] = test system: panel of 60 tumour cell lines; test: NCI 60-cell line one-dose screen, summary over the panel; format: cell-based, human; details: Homo sapiens, 60 cell, listed leukaemia, lung, colon, CNS, melanoma, ovarian, renal, breast lines, read-out: GI% range, potent growth inhibitory effects on the cell lines listed in the text
Experimental: Anticancer activity screening of the newly synthesised compounds was measured in vitro utilising 60 different human tumour cell lines provided by US National Cancer Institute according to previously reported standard procedure[41–43] as follows: Cells are inoculated into 96-well microtiter plates in 100 ml. After cell inoculation, the microtiter plates are incubated at 37 °C, 5% CO2, 95% air, and 100% relative humidity for 24 h prior to addition of experimental compounds. After 24 h, two plates of each cell line are fixed in situ with TCA, to represent a measurement of the cell population for each cell line at the time of compound addition (Tz). Experimental compounds are solubilised in dimethyl sulfoxide at 400-fold the desired final maximum test concentration and stored frozen prior to use. At the time of compound addition, an aliquot of frozen concentrate is thawed and diluted to twice the desired final maximum test concentration with a complete medium containing […] gentamicin. Aliquots of […] of the compounds dilutions are added to the appropriate microtiter wells already containing 100 ml of medium, resulting in the required final compound concentration. Following compound addition, the plates are incubated for an additional 48 h at 37 °C, 5% CO2, 95% air, and 100% relative humidity. […] The bound stain is subsequently solubilised with a 10 mM trizma base, and the absorbance is read on an automated plate reader at a wavelength of 515 nm. […] Using the absorbance measurements [time zero, (Tz), control growth, (C), and test growth in the presence of compound (Ti)], the percentage growth is calculated for each compound. […]
Fifteen newly synthesised compounds were tested for their in vitro antiproliferative activity by the National Cancer Institute (NCI), Maryland, USA[50], under the Developmental Therapeutic Program (DTP)[41]^,[43]^,[51]^,[52]. The tested compounds were evaluated at a concentration of 10 µM on a panel of 60 tumour cell lines representing leukaemia and non-small cell lung, colon, CNS, melanoma, ovarian, renal, prostate, and breast cancers. […]

SMILES	IC50 [1]	IC50 (renal (UO-31) cell line)	IC50 (colon (HCT-15) cell line)	inhibition at 10 µM (HT29)	inhibition at 10 µM (T-47D)	inhibition at 10 µM (OVCAR-3)	inhibition at 10 µM (UACC-257)	inhibition at 10 µM (UACC-62)	inhibition at 10 µM (RPMI-8226)	inhibition at 10 µM (TK-10)	inhibition at 10 µM (SK-OV-3)	inhibition at 10 µM (HCT-15)	inhibition at 10 µM (Colo 205)	inhibition at 10 µM (SR)	inhibition at 10 µM (KM12)	inhibition at 10 µM (SK-MEL-2)	inhibition at 10 µM (HCC-2998)	inhibition at 10 µM (HL-60 (TB))	inhibition at 10 µM (SF-268)	inhibition at 10 µM (DU-145)	other results
Cc1ccc(C(=O)c2ccc(CC(=O)NN=Cc3cccc(O)c3O)n2C)cc1 [Compound 5b, N′-(2,3-Dihydroxybenzylidene)-2–(1-methyl-5–(4-methylbenzoyl)-1H-pyrrol-2-yl) acetohydrazide]	10.3 ± 0.55 µM	7.69 ± 0.41 µM	6.62 ± 0.35 µM	13.3%	74.1%	76.5%	10.3%	60.9%	64.9%	61.2%	32%	84.3%	37%	91.1%	55.8%	< 10%	29.4%	95.9%	62.8%	50.7%	inhibition at 10 µM (SK-MEL-28): 20%; inhibition at 10 µM (MOLT-4): 88.8%; inhibition at 10 µM (HS 578 T): 12.6%; inhibition at 10 µM (IGROV1): 48.8%; inhibition at 10 µM (LOX IMVI): 82.7%; inhibition at 10 µM (BT-5): 54.3%; inhibition at 10 µM (MALME-3M): 41.3%; inhibition at 10 µM (CCRF-CEM): 86.9%; inhibition at 10 µM (MDA-MB-231/ATCC): 54.7%; inhibition at 10 µM [2]: 60.9 to 95.9%
Cc1ccc(C(=O)c2ccc(CC(=O)NN=Cc3ccc(O)cc3O)n2C)cc1 [Compound 5c, N′-(2,4-Dihydroxybenzylidene)-2–(1-methyl-5–(4-methylbenzoyl)-1H-pyrrol-2-yl) acetohydrazide]	31.7 ± 1.7 µM	17.4 ± 0.93 µM	19 ± 1.03 µM	36%	49.8%	62.8%	41.7%	70.2%	51.6%	47.1%	54.9%	83.2%	58.2%	82.7%	63.9%	40.6%	40.4%	95.5%	62.7%	48.7%	inhibition at 10 µM (SK-MEL-28): 53.6%; inhibition at 10 µM (MOLT-4): 87%; inhibition at 10 µM (HS 578 T): 25.1%; inhibition at 10 µM (IGROV1): 58.3%; inhibition at 10 µM (LOX IMVI): 81.2%; inhibition at 10 µM (BT-5): 49.2%; inhibition at 10 µM (MALME-3M): 51.4%; inhibition at 10 µM (CCRF-CEM): 83.2%; inhibition at 10 µM (MDA-MB-231/ATCC): 48.6%; inhibition at 10 µM [2]: 60.7 to 95%
